Reference: patent publication US20100172988A1, “SUSTAINED RELEASE PREPARATION AND METHOD FOR PRODUCTION THEREOF” (KISSEI PHARMACEUTICAL CO., LTD., priority 2006, published 2010)

What was measured:
[1] = pH dependence of the dissolution rate of compound (I); assay type: physicochemical; details: compared with approximately pH 1.2 (gastric juice) and approximately pH 6.8 (intestinal juice)
[2] = Decomposition of compound (I) on adding a basic ingredient; assay type: physicochemical; details: basic ingredient added to compound (I)

What does the source list for `CCOC(=O)COc1cc(C)c(CCN[C@@H](C)[C@H](O)c2ccc(O)cc2)cc1C.Cl` [compound (I), Ethyl (−)-2-[4-[2-[[(1S,2R)-2-hydroxy-2-(4-hydroxy-phenyl)-1-methylethyl]amino]ethyl]-2,5-dimethylphenoxy]-acetate hydrochloride]?
pH of the highest dissolution rate of the active ingredient [1]: highest dissolution rate at approximately pH 4; decomposition of compound (I) [2]: decomposition of compound (I) itself was accelerated
